Reference: the supplement of paper PMC5908809

What was measured:
SNK-6 (IL-2 2.5 ng/mL) [1] = test: percent inhibition of viability; higher = more inhibition; details: 72 h
KHYG-1 (IL-2 2.5 ng/mL) [2] = test: as above; details: 72 h
[3] = test system: normal primary NK cells, pool 3 (3 donors) (IL-2 2.5 ng/mL); test: as above; details: 72 h
IMC-1 (IL-2 20 ng/mL) [4] = test: as above; details: 72 h
NK-92 (IL-2 2.5 ng/mL) [5] = test: as above; details: 72 h
[6] = test system: normal primary NK cells, pool 1 (3 donors) (IL-2 2.5 ng/mL); test: as above; details: 72 h
NKL (IL-2 2.5 ng/mL) [7] = test: as above; details: 72 h
[8] = test system: normal primary NK cells, pool 1 (3 donors), resting (IL-2 0 ng/mL); test: as above; details: 72 h
KAI3 (IL-2 2.5 ng/mL) [9] = test: as above; details: 72 h
NK-YS (IL-2 2.5 ng/mL) [10] = test: as above; details: 72 h
DERL-7 (IL-2 2.5 ng/mL) [11] = test: as above; details: 72 h
[12] = test system: normal primary NK cells, pool 2 (3 donors) (IL-2 2.5 ng/mL); test: as above; details: 72 h
YT (IL-2 2.5 ng/mL) [13] = test: as above; details: 72 h
[14] = test system: normal NK cells expanded with K562-aAPC; test: as above; details: 72 h, IL-2 2.5 ng/mL
Procedure: (§1)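 Drug sensitivity and resistance testing on K562-aAPC-expanded normal NK cells: 5 concentrations (10-fold steps over a 10,000-fold range), 72 h at 37 °C, viability by CellTiter-Glo normalised to DMSO and benzethonium chloride controls; DSS from the fitted curve.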

[15] = test system: normal NK cells expanded with K562-aAPC; test: drug sensitivity score (DSS) (DSS units); higher = more sensitive; extreme values may be limits of the assay; details: 72 h; IL-2 2.5 ng/mL
Procedure: as §1

SNK-6 (IL-2 2.5 ng/mL) [16] = test: as above; details: 72 h
KHYG-1 (IL-2 2.5 ng/mL) [17] = test: as above; details: 72 h
[18] = test system: normal primary NK cells, pool 3 (3 donors) (IL-2 2.5 ng/mL); test: as above; details: 72 h
IMC-1 (IL-2 20 ng/mL) [19] = test: as above; details: 72 h
NK-92 (IL-2 2.5 ng/mL) [20] = test: as above; details: 72 h
[21] = test system: normal primary NK cells, pool 1 (3 donors) (IL-2 2.5 ng/mL); test: as above; details: 72 h
NKL (IL-2 2.5 ng/mL) [22] = test: as above; details: 72 h
[23] = test system: normal primary NK cells, pool 1 (3 donors), resting (IL-2 0 ng/mL); test: as above; details: 72 h
KAI3 (IL-2 2.5 ng/mL) [24] = test: as above; details: 72 h
NK-YS (IL-2 2.5 ng/mL) [25] = test: as above; details: 72 h
DERL-7 (IL-2 2.5 ng/mL) [26] = test: as above; details: 72 h
[27] = test system: normal primary NK cells, pool 2 (3 donors) (IL-2 2.5 ng/mL); test: as above; details: 72 h
YT (IL-2 2.5 ng/mL) [28] = test: as above; details: 72 h

CNC(=O)c1cc(Oc2ccc(NC(=O)Nc3ccc(Cl)c(C(F)(F)F)c3)c(F)c2)ccn1 [Regorafenib] (max concentration tested 10000 nM)
percent inhibition of viability [%]
Details | 1 nM | 10 nM | 100 nM | 1000 nM | 10000 nM
DERL-7 (IL-2 2.5 ng/mL) [11] | 2.39 | 2.44 | -0.06 | 27.7 | 70.5
IMC-1 (IL-2 20 ng/mL) [4] | -4.09 | -5.72 | 3.85 | 6.77 | 39.6
KAI3 (IL-2 2.5 ng/mL) [9] | -0.04 | -3.7 | -6.12 | -2.83 | 85.1
KHYG-1 (IL-2 2.5 ng/mL) [2] | -1.86 | -1.02 | 1.17 | 11.2 | 87.3
NK-92 (IL-2 2.5 ng/mL) [5] | 0.49 | 12.1 | 12 | 37.9 | 85.7
NK-YS (IL-2 2.5 ng/mL) [10] | -1 | -1.21 | 3.83 | 15.4 | 67
NKL (IL-2 2.5 ng/mL) [7] | -7.68 | -18.9 | -10.6 | 17.4 | 70.8
SNK-6 (IL-2 2.5 ng/mL) [1] | 9.61 | 17.5 | 36.1 | 38.7 | 63.7
YT (IL-2 2.5 ng/mL) [13] | 2 | 0.08 | 3.65 | 21.9 | 100
[3] | -11.7 | -13.3 | -6.26 | 6.56 | 48.1
[6] | -13.1 | 1.52 | -11 | 1.66 | 79.7
[8] | 6.64 | 8.24 | -7.13 | 12.5 | 79.3
[12] | -10.1 | -16.9 | -7.59 | 12.1 | 61
[14] | 3.1 | -1.28 | -0.64 | -2.22 | 19.1

Details | drug sensitivity score
DERL-7 (IL-2 2.5 ng/mL) [26] | 7.66
IMC-1 (IL-2 20 ng/mL) [19] | 3.09
KAI3 (IL-2 2.5 ng/mL) [24] | 4.49
KHYG-1 (IL-2 2.5 ng/mL) [17] | 6.71
NK-92 (IL-2 2.5 ng/mL) [20] | 9.31
NK-YS (IL-2 2.5 ng/mL) [25] | 6.12
NKL (IL-2 2.5 ng/mL) [22] | 6.61
SNK-6 (IL-2 2.5 ng/mL) [16] | 13.9
YT (IL-2 2.5 ng/mL) [28] | 8.99
[15] | 0.41
[18] | 3.62
[21] | 4.63
[23] | 6.48
[27] | 5.3
